Tests used:
airway epithelial cells = conditions: cited from earlier work
islet cells = test: Islet cell culture with upstream or downstream ROCK pathway inhibitor in place of a ROCK inhibitor; format: cell-based, human; conditions: used in the culture conditions in place of a ROCK inhibitor
Source text: As used herein, inhibiting ROCK can mean to reduce the activity, function or expression of at least one of ROCK1 or ROCK2. […] In general, ROCK phosphorylates LIM kinase and myosin light chain (MLC) phosphatase after being activated through binding of GTP-bound Rho. One embodiment of the present invention thus involves blocking the upstream pathway of ROCK1 and/or ROCK2, for example GTP-bound Rho, such that ROCK1 and/or ROCK2 is not activated or its activity is reduced over untreated cells. Other upstream effectors include but are not limited to, integrins, growth factor receptors, including but not limited to, TGF-beta and EGFR, cadherins, G protein coupled receptors and the like. Another embodiment of the present invention thus involves blocking the activity, function or expression of downstream effector molecules of activated ROCK1 and/or ROCK2 such that ROCK1 and/or ROCK2 cannot propagate any signal or can only propagate a reduced signal over untreated cells. Downstream effectors include but are not limited to, Myosin phosphatase-targeting protein (MYPT), vimentin, LIMK, Myosin light chain kinase, NHE1, cofilin, Myosin II and the like. […] Upstream or downstream inhibition of ROCK, in place of direct ROCK inhibition and in conjunction with the other culture conditions described and required herein, may or may not generate conditionally immortalized islet cells. […]

Compound	effect on airway epithelial cells (airway epithelial cells)	effect on cell differentiation and proliferation in vitro (islet cells)
O=S(=O)(c1cccc2cnccc12)N1CCCNCC1 [HA 1077, fasudil]	induces membrane ruffling, loss of actin stress fibers and apoptosis	–
C[C@@H](N)[C@H]1CC[C@H](C(=O)Nc2ccncc2)CC1 [Y-27632]	induces membrane ruffling, loss of actin stress fibers and apoptosis	–
Cc1ccc2c(c1)C(=O)C1(O)CCN(c3ccccc3)C1=N2 (stereo not shown) [blebbistatin]	–	allow the cells to bypass differentiation and allow proliferation in vitro
C3 transferase	–	allow the cells to bypass differentiation and allow proliferation in vitro

From patent US20190151371A1, “PROCESS FOR CONTINUOUS CELL CULTURE OF ISLET CELLS” (Georgetown University, priority 2016, published 2019)
